Assay results taken from patent US6461997B1, “Triazole sulfones having herbicidal activity” (Monsanto Technology LLC, priority 1999, dated 2002).

Tests used:
wheat (TRZAW) = assay: Selectivity test, PPI, cool season crop; type: in vivo, Triticum aestivum; settings: PPI application
Outline: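 Pre-plant incorporated: compound in organic solvent sprayed onto cover soil, mixed and laid over seeds; untreated soil for controls. Greenhouse after treatment: warm season 30/21° C., cool season 18/13° C. day/night. Percent inhibition versus untreated plants scored about 14 days after planting.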

AVEFA (wild oat) = assay: Pre-plant incorporated (PPI) herbicidal activity, cool season; type: in vivo, Avena fatua
Outline: (§1)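 Greenhouse PPI test with treated cover soil over seeds; % inhibition vs untreated at about 14 days.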

ECHCG (barnyardgrass) = assay: Pre-plant incorporated (PPI) herbicidal activity, warm season; type: in vivo, Echinochloa crus-galli
Outline: as §1

[1] = tested on: CHEAL (common lambsquarters); assay: as above; type: in vivo, Chenopodium album
Outline: as §1

AMARE (redroot pigweed) [2] = assay: as above; type: in vivo, Amaranthus retroflexus
Outline: as §1

AMARE (redroot pigweed) [3] = assay: Pre-emergence herbicidal activity, warm season; type: in vivo, Amaranthus retroflexus; settings: GR80 = lowest tested rate (300, 100, 30, 10 g/ha) with 80% or greater inhibition; approx. 14 days after treating; 30/21° C.
Outline: (§2)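 Seeds sown in sterilised fertilised topsoil received surface-applied compound in 50:50 acetone/water, typically at 300, 100, 30 and 10 g/ha, then greenhouse-grown at 30/21° C (warm-season species) or 18/13° C (cool-season species). Percent inhibition versus untreated plants was scored at about 14 days, giving GR80; an asterisk marks activity short of 80% at the top rate.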

SETVI (green foxtail) = assay: Pre-emergence herbicidal activity, cool season; type: in vivo, Setaria viridis; settings: GR80 = lowest tested rate (300, 100, 30, 10 g/ha) with 80% or greater inhibition; approx. 14 days after treating; 18/13° C.
Outline: as §2

XANST (cocklebur) = assay: Pre-plant incorporated (PPI) herbicidal activity, warm season; type: in vivo, Xanthium strumarium; settings: PPI application
Outline: as §1

[4] = tested on: LAMPU (purple deadnettle); assay: Pre-plant incorporated (PPI) herbicidal activity, cool season; type: in vivo, Lamium purpureum
Outline: as §1

[5] = tested on: AGRRE (quackgrass (seedling)); assay: as above; type: in vivo, Elymus repens
Outline: as §1

[6] = pre-plant incorporated, lowest tested rate with 80% or greater inhibition, about 14 days
[7] = pre-plant incorporated, GR80 = lowest tested rate with 80% or greater inhibition, approx. 14 days after treating, 30/21° C.
[8] = weed, PPI application, 100 g/ha
[9] = weed, PPI application, 300 g/ha
[10] = weed, PPI application, 900 g/ha

CCSC(F)(F)S(=O)(=O)c1ncn(C(=O)N(CC)CC)n1 [Example 8, 1-(N,N-diethylcarbamoyl)-3-[difluoro(ethylthio)methylsulfonyl]-1,2,4-triazole]
inhibition at 30 g/ha (wheat (TRZAW); Triticum aestivum, 30 g/ha, read-out: Percent inhibition TRZAW): 0%
inhibition at 100 g/ha (wheat (TRZAW); Triticum aestivum, 100 g/ha, read-out: Percent inhibition TRZAW): 0%
inhibition at 300 g/ha (wheat (TRZAW); Triticum aestivum, 300 g/ha, read-out: Percent inhibition TRZAW): 20%
inhibition at 900 g/ha (wheat (TRZAW); Triticum aestivum, 900 g/ha, read-out: Percent inhibition TRZAW): 60%
inhibition at 30 g/ha (AVEFA (wild oat); Avena fatua, weed, PPI application, 30 g/ha, read-out: Percent inhibition AVEFA): 10%
inhibition at 100 g/ha (AVEFA (wild oat); Avena fatua, weed, PPI application, 100 g/ha, read-out: Percent inhibition AVEFA): 75%
inhibition at 300 g/ha (AVEFA (wild oat); Avena fatua, weed, PPI application, 300 g/ha, read-out: Percent inhibition AVEFA): 95%
inhibition at 900 g/ha (AVEFA (wild oat); Avena fatua, weed, PPI application, 900 g/ha, read-out: Percent inhibition AVEFA): 100%
PPI activity GR80, AVEFA (AVEFA (wild oat); [6]): 100 g/ha
inhibition at 30 g/ha (ECHCG (barnyardgrass); Echinochloa crus-galli, PPI application, 30 g/ha, read-out: Percent inhibition ECHCG): 90%
inhibition at 100 g/ha (ECHCG (barnyardgrass); Echinochloa crus-galli, PPI application, 100 g/ha, read-out: Percent inhibition ECHCG): 100%
inhibition at 300 g/ha (ECHCG (barnyardgrass); Echinochloa crus-galli, PPI application, 300 g/ha, read-out: Percent inhibition ECHCG): 100%
inhibition at 900 g/ha (ECHCG (barnyardgrass); Echinochloa crus-galli, PPI application, 900 g/ha, read-out: Percent inhibition ECHCG): 100%
PPI activity GR80, ECHCG (ECHCG (barnyardgrass); [6]): 30 g/ha
inhibition at 30 g/ha ([1]; Chenopodium album, PPI application, 30 g/ha, read-out: Percent inhibition CHEAL): 70%
inhibition at 100 g/ha ([1]; Chenopodium album, PPI application, 100 g/ha, read-out: Percent inhibition CHEAL): 100%
inhibition at 300 g/ha ([1]; Chenopodium album, PPI application, 300 g/ha, read-out: Percent inhibition CHEAL): 100%
inhibition at 900 g/ha ([1]; Chenopodium album, PPI application, 900 g/ha, read-out: Percent inhibition CHEAL): 100%
PPI activity (GR80) CHEAL [1, 7]: 30 g/ha
inhibition at 30 g/ha (AMARE (redroot pigweed) [2]; Amaranthus retroflexus, PPI application, 30 g/ha, read-out: Percent inhibition AMARE): 100%
inhibition at 100 g/ha (AMARE (redroot pigweed) [2]; Amaranthus retroflexus, PPI application, 100 g/ha, read-out: Percent inhibition AMARE): 100%
inhibition at 300 g/ha (AMARE (redroot pigweed) [2]; Amaranthus retroflexus, PPI application, 300 g/ha, read-out: Percent inhibition AMARE): 100%
inhibition at 900 g/ha (AMARE (redroot pigweed) [2]; Amaranthus retroflexus, PPI application, 900 g/ha, read-out: Percent inhibition AMARE): 100%
PPI activity (GR80) AMARE (AMARE (redroot pigweed) [2]; [7]): 100 g/ha
Pre-emergence activity (GR80) AMARE (AMARE (redroot pigweed) [3]): 100 g/ha
Pre-emergence activity (GR80) SETVI (SETVI (green foxtail)): 100 g/ha
inhibition at 30 g/ha (XANST (cocklebur); Xanthium strumarium, 30 g/ha, read-out: Percent inhibition XANST): 0%
inhibition at 100 g/ha (XANST (cocklebur); Xanthium strumarium, 100 g/ha, read-out: Percent inhibition XANST): 0%
inhibition at 300 g/ha (XANST (cocklebur); Xanthium strumarium, 300 g/ha, read-out: Percent inhibition XANST): 20%
inhibition at 900 g/ha (XANST (cocklebur); Xanthium strumarium, 900 g/ha, read-out: Percent inhibition XANST): 50%
inhibition at 30 g/ha ([4]; Lamium purpureum, weed, PPI application, 30 g/ha, read-out: Percent inhibition LAMPU): 80%
inhibition at 100 g/ha ([4]; Lamium purpureum, weed, PPI application, 100 g/ha, read-out: Percent inhibition LAMPU): 100%
inhibition at 300 g/ha ([4]; Lamium purpureum, weed, PPI application, 300 g/ha, read-out: Percent inhibition LAMPU): 90%
inhibition at 900 g/ha ([4]; Lamium purpureum, weed, PPI application, 900 g/ha, read-out: Percent inhibition LAMPU): 100%
PPI activity GR80, LAMPU [4, 6]: 100 g/ha
inhibition at 30 g/ha ([5]; Elymus repens, weed, PPI application, 30 g/ha, read-out: Percent inhibition AGRRE): 0%
inhibition at 100 g/ha ([5]; Elymus repens, weed, PPI application, 100 g/ha, read-out: Percent inhibition AGRRE): 40%
inhibition at 300 g/ha ([5]; Elymus repens, weed, PPI application, 300 g/ha, read-out: Percent inhibition AGRRE): 70%
inhibition at 900 g/ha ([5]; Elymus repens, weed, PPI application, 900 g/ha, read-out: Percent inhibition AGRRE): 100%
PPI activity GR80, AGRRE [5, 6]: 300 g/ha

CCN(CC)C(=O)n1cnc(S(=O)(=O)C(F)(F)SC)n1 [Example 9]
Percent inhibition TRZAW (wheat (TRZAW); 30 g/ha): 0%
Percent inhibition TRZAW (wheat (TRZAW); 100 g/ha): 0%
Percent inhibition TRZAW (wheat (TRZAW); 300 g/ha): 10%
Percent inhibition TRZAW (wheat (TRZAW); 900 g/ha): 70%
Percent inhibition AVEFA (AVEFA (wild oat); weed, PPI application, 30 g/ha): 0%
Percent inhibition AVEFA (AVEFA (wild oat); [8]): 20%
Percent inhibition AVEFA (AVEFA (wild oat); [9]): 100%
Percent inhibition AVEFA (AVEFA (wild oat); [10]): 100%
Percent inhibition ECHCG (ECHCG (barnyardgrass); PPI application, 30 g/ha): 90%
Percent inhibition ECHCG (ECHCG (barnyardgrass); PPI application, 100 g/ha): 100%
Percent inhibition ECHCG (ECHCG (barnyardgrass); PPI application, 300 g/ha): 100%
Percent inhibition ECHCG (ECHCG (barnyardgrass); PPI application, 900 g/ha): 100%
Percent inhibition CHEAL ([1]; PPI application, 30 g/ha): 95%
Percent inhibition CHEAL ([1]; PPI application, 100 g/ha): 100%
Percent inhibition CHEAL ([1]; PPI application, 300 g/ha): 100%
Percent inhibition CHEAL ([1]; PPI application, 900 g/ha): 100%
Percent inhibition AMARE (AMARE (redroot pigweed) [2]; PPI application, 30 g/ha): 90%
Percent inhibition AMARE (AMARE (redroot pigweed) [2]; PPI application, 100 g/ha): 100%
Percent inhibition AMARE (AMARE (redroot pigweed) [2]; PPI application, 300 g/ha): 100%
Percent inhibition AMARE (AMARE (redroot pigweed) [2]; PPI application, 900 g/ha): 100%
Pre-emergence activity (GR80) AMARE (AMARE (redroot pigweed) [3]): 300 g/ha
Pre-emergence activity (GR80) SETVI (SETVI (green foxtail)): 100 g/ha
Percent inhibition XANST (XANST (cocklebur); 30 g/ha): 0%
Percent inhibition XANST (XANST (cocklebur); 100 g/ha): 0%
Percent inhibition XANST (XANST (cocklebur); 300 g/ha): 30%
Percent inhibition XANST (XANST (cocklebur); 900 g/ha): 60%
Percent inhibition LAMPU ([4]; weed, PPI application, 30 g/ha): 0%
Percent inhibition LAMPU [4, 8]: 40%
Percent inhibition LAMPU [4, 9]: 100%
Percent inhibition LAMPU [4, 10]: 95%
Percent inhibition AGRRE ([5]; weed, PPI application, 30 g/ha): 0%
Percent inhibition AGRRE [5, 8]: 70%
Percent inhibition AGRRE [5, 9]: 80%
Percent inhibition AGRRE [5, 10]: 100%

CCN(CC)C(=O)n1cnc(S(=O)(=O)C(F)(F)SCc2ccccc2)n1 [Example 10]
Percent inhibition TRZAW (wheat (TRZAW); 10 g/ha): 0%
Percent inhibition TRZAW (wheat (TRZAW); 30 g/ha): 0%
Percent inhibition TRZAW (wheat (TRZAW); 100 g/ha): 0%
Percent inhibition TRZAW (wheat (TRZAW); 300 g/ha): 10%
Percent inhibition TRZAW (wheat (TRZAW); 900 g/ha): 20%
Percent inhibition AVEFA (AVEFA (wild oat); weed, PPI application, 10 g/ha): 0%
Percent inhibition AVEFA (AVEFA (wild oat); weed, PPI application, 30 g/ha): 0%
Percent inhibition AVEFA (AVEFA (wild oat); [8]): 20%
Percent inhibition AVEFA (AVEFA (wild oat); [9]): 40%
Percent inhibition AVEFA (AVEFA (wild oat); [10]): 95%
Percent inhibition ECHCG (ECHCG (barnyardgrass); PPI application, 10 g/ha): 0%
Percent inhibition ECHCG (ECHCG (barnyardgrass); PPI application, 30 g/ha): 0%
Percent inhibition ECHCG (ECHCG (barnyardgrass); PPI application, 100 g/ha): 50%
Percent inhibition ECHCG (ECHCG (barnyardgrass); PPI application, 300 g/ha): 100%
Percent inhibition ECHCG (ECHCG (barnyardgrass); PPI application, 900 g/ha): 100%
Percent inhibition CHEAL ([1]; PPI application, 10 g/ha): 30%
Percent inhibition CHEAL ([1]; PPI application, 30 g/ha): 60%
Percent inhibition CHEAL ([1]; PPI application, 100 g/ha): 60%
Percent inhibition CHEAL ([1]; PPI application, 300 g/ha): 100%
Percent inhibition CHEAL ([1]; PPI application, 900 g/ha): 100%
Percent inhibition AMARE (AMARE (redroot pigweed) [2]; PPI application, 10 g/ha): 0%
Percent inhibition AMARE (AMARE (redroot pigweed) [2]; PPI application, 30 g/ha): 0%
Percent inhibition AMARE (AMARE (redroot pigweed) [2]; PPI application, 100 g/ha): 40%
Percent inhibition AMARE (AMARE (redroot pigweed) [2]; PPI application, 300 g/ha): 100%
Percent inhibition AMARE (AMARE (redroot pigweed) [2]; PPI application, 900 g/ha): 100%
Pre-emergence activity (GR80) AMARE (AMARE (redroot pigweed) [3]): 100 g/ha
Pre-emergence activity (GR80) SETVI (SETVI (green foxtail)): 300 g/ha
Percent inhibition XANST (XANST (cocklebur); 10 g/ha): 0%
Percent inhibition XANST (XANST (cocklebur); 30 g/ha): 0%
Percent inhibition XANST (XANST (cocklebur); 100 g/ha): 0%
Percent inhibition XANST (XANST (cocklebur); 300 g/ha): 0%
Percent inhibition XANST (XANST (cocklebur); 900 g/ha): 10%
Percent inhibition LAMPU ([4]; weed, PPI application, 10 g/ha): 0%
Percent inhibition LAMPU ([4]; weed, PPI application, 30 g/ha): 0%
Percent inhibition LAMPU [4, 9]: 0%
Percent inhibition LAMPU [4, 10]: 50%
Percent inhibition AGRRE ([5]; weed, PPI application, 10 g/ha): 0%
Percent inhibition AGRRE ([5]; weed, PPI application, 30 g/ha): 0%
Percent inhibition AGRRE [5, 8]: 0%
Percent inhibition AGRRE [5, 9]: 0%
Percent inhibition AGRRE [5, 10]: 50%
